US10392366B2, “Azetidine compounds as GPR119 modulators for the treatment of diabetes, obesity, dyslipidemia and related disorders” (SANOFI, priority 2017, dated 2019)

Molecular target: T1, human GPR119 (Homo sapiens, UniProt Q8TDV5)
T1 construct: expressed in transfected cells
T1 sequence (Q8TDV5 1-335): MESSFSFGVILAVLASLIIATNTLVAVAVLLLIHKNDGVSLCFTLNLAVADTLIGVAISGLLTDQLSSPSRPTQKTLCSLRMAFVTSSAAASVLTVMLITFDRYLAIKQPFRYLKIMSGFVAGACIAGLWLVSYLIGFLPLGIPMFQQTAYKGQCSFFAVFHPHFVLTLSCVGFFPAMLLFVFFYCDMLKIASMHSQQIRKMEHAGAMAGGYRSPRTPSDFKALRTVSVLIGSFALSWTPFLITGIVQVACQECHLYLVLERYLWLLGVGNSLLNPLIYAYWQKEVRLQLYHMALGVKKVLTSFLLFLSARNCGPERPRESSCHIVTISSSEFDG
Assay: Functional cellular assay measuring GPR119-mediated cAMP release (HTRF) in HEK-293 cells stably expressing recombinant GPR119
Format: cell-based
Settings: cell line expressing human GPR119, 30 minutes at room temperature
Description: Functional Cellular Assays Measuring GPR119-mediated cAMP Release
Compounds of the present disclosure, which are agonists of GPR119, were characterized by functional assays measuring the cAMP response of HEK-293 cell lines stably expressing recombinant GPR119 from man, mouse or rat, or by using the hamster cell line HIT-T15 expressing GPR119 endogenously. The cAMP content was determined using a kit based on homogenous time-resolved fluorescence (HTRF) from Cisbio Corp. (cat. no. 62AM4PEC). For preparation, cells were split into T175 culture flasks and grown to near confluency in medium (DMEM/10% FCS for HEK-293 cells, and F-12K medium/10% horse serum/2.5% FCS for HIT-T15 cells, respectively). Medium was then removed and cells washed with PBS lacking calcium and magnesium ions, followed by proteinase treatment with accutase (Sigma-Aldrich, cat. no. A6964). Detached cells were washed and resuspended in assay buffer (1×HBSS; 20 mM HEPES, 0.1% BSA, 2 mM IBMX) and cellular density determined. They were then diluted to 400000 cells/mL and 25 μL-aliquots dispensed to the wells of 96-well plates. For measurement, 25 μL of test compound in assay buffer was added and incubated for 30 minutes at room temperature. After addition of HTRF reagents diluted in lysis buffer, the plates were incubated for 1 hour, followed by measuring the fluorescence ratio at 665 vs. 620 nm. Potency of the agonists was quantified by determining the concentrations that caused 50% of the maximal response/activation (EC50). See Table 6 for exemplary data obtained using the cell line expressing human GPR119.

Row | Structure (SMILES) | EC50 [nM]
1 | O=C(NCO)C1CN(c2ccc(N3CC[C@@H](Oc4ccc(OCC(F)(F)F)nc4)C3=O)cn2)C1 [Compound 5-04] | 146
2 | NC(=O)OC1CN(c2ncc(N3CC[C@@H](Oc4ccc(OCC(F)(F)F)nc4)C3=O)cn2)C1 [Compound 5-01] | 458
3 | O=C(C1CN(c2ncc(N3CC[C@@H](Oc4ccc(Oc5ccc(F)cc5)nc4)C3=O)cn2)C1)N1CCC(O)CC1 [Compound 4-06] | 665
4 | CN(C)C(=O)C1CN(c2ccc(N3CC[C@@H](Oc4ccc(OCC5CC5)nc4)C3=O)cn2)C1 [Compound 1-06] | 170
5 | O=C(O)C1CN(c2ccc(N3CC[C@@H](Oc4ccc(OCC5CC5)nc4)C3=O)cn2)C1 [Compound 3-03] | 6050
6 | CN(C)C(=O)C1CN(c2ncc(N3CC[C@@H](Oc4ccc(C(=O)C5CC5)cc4)C3=O)cn2)C1 [Compound 2-01] | 218
7 | CN(C)C(=O)C1CN(c2ncc(N3CC[C@H](Oc4ccc(OCC(F)(F)F)nc4)C3=O)cn2)C1 [Compound 1-13] | 257
8 | CC(C)SC1CN(c2ncc(N3CC[C@@H](Oc4ccc(OCC(F)(F)F)nc4)C3=O)cn2)C1 [Compound 1-29] | 16
9 | CN(C)C(=O)C1CN(c2ncc(N3CC[C@@H](Oc4ccc(-c5nccs5)cc4)C3=O)cn2)C1 [Compound 2-03] | 324
10 | CC(C)S(=O)(=O)C1CN(c2ncc(N3CC[C@@H](Oc4ccc(OCC(F)(F)F)nc4)C3=O)cn2)C1 [Compound 1-37] | 71
11 | CC(C)NC(=O)C1CN(c2ncc(N3CC[C@@H](Oc4ccc(Oc5ccc(F)cc5)nc4)C3=O)cn2)C1 [Compound 4-05] | 1680
12 | CS(=O)(=O)C1CN(c2ncc(N3CC[C@@H](Oc4ccc(OCC(F)(F)F)nc4)C3=O)cn2)C1 [Compound 1-16] | 58
13 | O=C1[C@H](Oc2ccc(OCC(F)(F)F)nc2)CCN1c1cnc(N2CC(O)C2)nc1 [Compound 1-22] | 872
14 | CNC(=O)C1CN(c2ccc(N3CC[C@@H](Oc4ccc(OCC(F)(F)F)nc4)C3=O)cn2)C1 [Compound 4-25] | 88
15 | C[S+]([O-])C1CN(c2ncc(N3CC[C@@H](Oc4ccc(C(=O)C5CC5)c(F)c4)C3=O)cn2)C1 (stereo partly drawn) [Compound 1-40] | 1820
16 | CN(C)C(=O)C1CN(c2ncc(N3CC[C@@H](Oc4ccc(C(=O)C5CC5)nc4)C3=O)cn2)C1 [Compound 2-04] | 926
17 | CN(CC(N)=O)C(=O)C1CN(c2ncc(N3CC[C@@H](Oc4ccc(OCC(F)(F)F)nc4)C3=O)cn2)C1 [Compound 4-18] | 398
18 | CN(C)C(=O)C1CN(c2ncc(N3CCC(Cc4ccc(OCC(F)(F)F)nc4)C3=O)cn2)C1 (single isomer, unassigned) [Compound 1-45] | 203
19 | CS(=O)(=O)C1CN(c2ncc(N3CC[C@@H](Oc4ccc(C(=O)C5CC5)cc4)C3=O)cn2)C1 [Compound 1-17] | 122
20 | O=C(O)C1CN(c2ncc(N3CC[C@@H](Oc4ccc(OCC(F)(F)F)nc4)C3=O)cn2)C1 [Compound 3-04] | 9160
21 | CN(C)C(=O)C1CN(c2ncc(N3CC[C@@H](Oc4ccc(OCC5CC5)nc4)C3=O)cc2F)C1 [Compound 1-04] | 70
22 | CN1CCC2(CN(c3ncc(N4CC[C@@H](Oc5ccc(OCC(F)(F)F)nc5)C4=O)cn3)C2)C1=O [Compound 1-28] | 290
23 | O=C(C1CN(c2ncc(N3CC[C@@H](Oc4ccc(Oc5ccc(F)cc5)nc4)C3=O)cn2)C1)N1CCCC1 [Compound 4-10] | 437

Row | Structure (SMILES) | EC50 [nM]
24 | CC(C)[S+]([O-])C1CN(c2ncc(N3CC[C@@H](Oc4ccc(C(=O)C5CC5)c(F)c4)C3=O)cn2)C1 (stereo partly drawn) [Compound 1-41] | 221
25 | CN(C)C(=O)C1CN(c2ncc(N3CCC(Cc4ccc(OCC(F)(F)F)nc4)C3=O)cn2)C1 (single isomer, unassigned) [Compound 1-42] | 157
26 | CN(C)C(=O)C1CN(c2ncc(N3CC[C@@H](Oc4ccc(OCC5CC5)nc4)C3=O)cc2C#N)C1 [Compound 1-05] | 61
27 | CS(=O)(=O)C1CN(c2ncc(N3CCC(Cc4ccc(OCC(F)(F)F)nc4)C3=O)cn2)C1 (single isomer, unassigned) [Compound 1-44] | 138
28 | C[S+]([O-])C1CN(c2ncc(N3CCC(Cc4ccc(OCC(F)(F)F)nc4)C3=O)cn2)C1 (single isomer, unassigned) [Compound 1-46] | 411
29 | COCC(=O)NC1CN(c2ncc(N3CC[C@@H](Oc4ccc(OCC(F)(F)F)nc4)C3=O)cn2)C1 [Compound 4-23] | 956
30 | O=C(NC1CC1)C1CN(c2ncc(N3CC[C@@H](Oc4ccc(Oc5ccc(F)cc5)nc4)C3=O)cn2)C1 [Compound 4-09] | 1520
31 | CCN(CC)C(=O)C1CN(c2ncc(N3CC[C@@H](Oc4ccc(OCC(F)(F)F)nc4)C3=O)cn2)C1 [Compound 4-14] | 84
32 | CS(=O)(=O)C1CN(c2ncc(N3CC[C@H](Oc4ccc(OCC(F)(F)F)nc4)C3=O)cn2)C1 [Compound 1-50] | 321
33 | N#Cc1cc(N2CC[C@@H](Oc3ccc(OCC4CC4)nc3)C2=O)cnc1N1CC(O)C1 [Compound 1-01] | 57
34 | O=C(O)C1CN(c2ccc(N3CC[C@@H](Oc4ccc(OCC(F)(F)F)nc4)C3=O)cn2)C1 [Compound 3-02] | 391
35 | C[S+]([O-])C1CN(c2ncc(N3CC[C@@H](Oc4ccc(C(=O)C5CC5)cc4)C3=O)cn2)C1 (single isomer, unassigned) [Compound 1-20] | 1970
36 | COC(=O)CC1CN(c2ncc(N3CC[C@@H](Oc4ccc(OCC(F)(F)F)nc4)C3=O)cn2)C1 [Compound 1-30] | 334
37 | O=C1[C@H](Oc2ccc(OCC(F)(F)F)nc2)CCN1c1cnc(N2CC3(CCNC3=O)C2)nc1 [Compound 1-26] | 448
38 | CC(=O)N1CCN(C(=O)C2CN(c3ncc(N4CC[C@@H](Oc5ccc(Oc6ccc(F)cc6)nc5)C4=O)cn3)C2)CC1 [Compound 4-08] | 1280
39 | CN(C)C(=O)C1CN(c2ncc(N3CC[C@@H](Oc4ccc(C(=O)C5CC5)c(F)c4)C3=O)cn2)C1 [Compound 2-07] | 128
40 | CN(C)C(=O)C1CN(c2ncc(N3CC(C)(C)C(Oc4ccc(OCC(F)(F)F)cc4)C3=O)cn2)C1 (stereo not drawn) [Compound 1-19] | 180
41 | O=C(C1CN(c2ncc(N3CC[C@@H](Oc4ccc(OCC(F)(F)F)nc4)C3=O)cn2)C1)N1CCCC1 [Compound 4-15] | 84
42 | NC(=O)C1CN(c2ccc(N3CC[C@@H](Oc4ccc(OCC(F)(F)F)nc4)C3=O)cn2)C1 [Compound 4-26] | 101
43 | O=C1[C@H](Oc2ccc(OCC3CC3)nc2)CCN1c1cnc(N2CC(O)C2)c(F)c1 [Compound 1-02] | 206
44 | CN(C)C(=O)C1CN(c2ncc(N3CC[C@@H](Oc4ccc(OCC(F)(F)F)nc4)C3=O)cn2)C1 [Compound 1-31] | 129
45 | CS(=O)(=O)C1CN(c2ncc(N3CC[C@H](Oc4ccc(C(=O)C5CC5)cc4)C3=O)cn2)C1 [Compound 1-27] | 2210
